According to ChEMBL document CHEMBL1147204, “Synthesis and antimicrobial evaluation of some new thiazole, thiazolidinone and thiazoline derivatives starting from 1-chloro-3,4-dihydronaphthalene-2-carboxaldehyde” (2007):

Key:
Assay type in all cases: functional
[1] = system: Aspergillus oryzae; experiment: Antifungal activity against Aspergillus oryzae by agar diffusion technique
[2] = system: Priestia megaterium; experiment: Antimicrobial activity against Bacillus megaterium by agar diffusion technique
[3] = system: Bacillus subtilis; experiment: Antimicrobial activity against Bacillus subtilis by agar diffusion technique
[4] = system: Escherichia coli; experiment: Antimicrobial activity against Escherichia coli by agar diffusion technique
[5] = system: Aspergillus niger; experiment: Antifungal activity against Aspergillus niger by agar diffusion technique
[6] = system: Aspergillus niger; experiment: Antifungal activity against Aspergillus niger at 25 ug/mL by agar diffusion technique; settings: read-out: IZ
[7] = system: Priestia megaterium; experiment: Antimicrobial activity against Bacillus megaterium at 25 ug/mL by agar diffusion technique; settings: read-out: IZ
[8] = system: Escherichia coli; experiment: Antimicrobial activity against Escherichia coli at 25 ug/mL by agar diffusion technique; settings: read-out: IZ
[9] = system: Bacillus subtilis; experiment: Antimicrobial activity against Bacillus subtilis at 25 ug/mL by agar diffusion technique; settings: read-out: IZ
[10] = system: Aspergillus oryzae; experiment: Antifungal activity against Aspergillus oryzae at 25 ug/mL by agar diffusion technique; settings: read-out: IZ

`O=c1c2c(ncn1/N=C/C1=C(Cl)c3ccccc3CC1)sc(=S)n2-c1ccccc1` was tested, and the “inhibition zone (IZ)” value [1] was 86 mm, the “inhibition zone (IZ)” value [2] was 92 mm and the “inhibition zone (IZ)” value [3] was 95 mm. For the same compound, the “inhibition zone (IZ)” value [4] was 85 mm and the “inhibition zone (IZ)” value [5] was 78 mm.

In the case of `CC1(C)S[C@@H]2[C@H](NC(=O)[C@H](N)c3ccccc3)C(=O)N2[C@H]1C(=O)O` [AMPICILLIN], the zone of inhibition at 25 µg/mL [6] is reported as 33 mm, the zone of inhibition at 25 µg/mL [7] is reported as 29 mm and the zone of inhibition at 25 µg/mL [8] is reported as 26 mm. It also gave a zone of inhibition at 25 µg/mL [9] of 40 mm.

With `O=C1CSC(N/N=C/C2=C(Cl)c3ccccc3CC2)=N1` the “inhibition zone (IZ)” value [1] was 78 mm, the “inhibition zone (IZ)” value [2] was 40 mm and the “inhibition zone (IZ)” value [3] was 35 mm. For the same compound, the “inhibition zone (IZ)” value [4] was 30 mm and the “inhibition zone (IZ)” value [5] was 66 mm.

In the case of `Cc1csc(N/N=C/C2=C(Cl)c3ccccc3CC2)n1`, the “inhibition zone (IZ)” value [1] is reported as 75 mm, the “inhibition zone (IZ)” value [2] is reported as 60 mm and the “inhibition zone (IZ)” value [3] is reported as 55 mm. For the same compound, the “inhibition zone (IZ)” value [4] was 40 mm and the “inhibition zone (IZ)” value [5] was 72 mm.

With `O=C1CS/C(=N\N=C\C2=C(Cl)c3ccccc3CC2)N1c1ccccc1` the “inhibition zone (IZ)” value [1] was 71 mm, the “inhibition zone (IZ)” value [2] was 55 mm and the “inhibition zone (IZ)” value [3] was 66 mm. For the same compound, the “inhibition zone (IZ)” value [5] was 63 mm.

With `O=C1/C(=C\c2ccc(Cl)cc2)S/C(=N\N=C\C2=C(Cl)c3ccccc3CC2)N1c1ccccc1` the “inhibition zone (IZ)” value [1] was 69 mm, the “inhibition zone (IZ)” value [2] was 43 mm and the “inhibition zone (IZ)” value [3] was 42 mm. The “inhibition zone (IZ)” value [5] was 58 mm.

`O=C1N=C(N/N=C/C2=C(Cl)c3ccccc3CC2)S/C1=C/c1ccc(Cl)cc1` was tested, and the “inhibition zone (IZ)” value [1] was 74 mm, the “inhibition zone (IZ)” value [2] was 34 mm and the “inhibition zone (IZ)” value [3] was 34 mm. The “inhibition zone (IZ)” value [4] was 25 mm and the “inhibition zone (IZ)” value [5] was 75 mm.

In the case of `Nc1sc(=S)n(-c2ccccc2)c1C(=O)N/N=C/C1=C(Cl)c2ccccc2CC1`, the “inhibition zone (IZ)” value [1] is reported as 75 mm, the “inhibition zone (IZ)” value [2] is reported as 82 mm and the “inhibition zone (IZ)” value [3] is reported as 89 mm. For the same compound, the “inhibition zone (IZ)” value [4] was 60 mm and the “inhibition zone (IZ)” value [5] was 64 mm.

For `COc1ccc(/N=N/c2sc(N/N=C/C3=C(Cl)c4ccccc4CC3)nc2C)cc1`, the “inhibition zone (IZ)” value [1] was 86 mm, the “inhibition zone (IZ)” value [2] was 85 mm and the “inhibition zone (IZ)” value [3] was 87 mm. The “inhibition zone (IZ)” value [4] was 50 mm and the “inhibition zone (IZ)” value [5] was 80 mm.

In the case of `CCOC(=O)C1SC(N/N=C/C2=C(Cl)c3ccccc3CC2)=NC1=O` (configuration not stated), the “inhibition zone (IZ)” value [1] is reported as 73 mm, the “inhibition zone (IZ)” value [2] is reported as 35 mm and the “inhibition zone (IZ)” value [3] is reported as 42 mm. The “inhibition zone (IZ)” value [5] was 69 mm.

`OC(Cn1cncn1)(Cn1cncn1)c1ccc(F)cc1F` [FLUCONAZOLE] gave a zone of inhibition at 25 µg/mL [6] of 22 mm and a zone of inhibition at 25 µg/mL [10] of 16 mm.

Compound `O=C(N[C@H](CO)[C@H](O)c1ccc([N+](=O)[O-])cc1)C(Cl)Cl` [CHLORAMPHENICOL] has a zone of inhibition at 25 µg/mL [6] of 35 mm, a zone of inhibition at 25 µg/mL [7] of 55 mm and a zone of inhibition at 25 µg/mL [8] of 48 mm. The zone of inhibition at 25 µg/mL [9] was 30 mm.

For `ClC1=C(/C=N/Nc2nc(-c3ccccc3)cs2)CCc2ccccc21`, the “inhibition zone (IZ)” value [1] was 79 mm, the “inhibition zone (IZ)” value [2] was 68 mm and the “inhibition zone (IZ)” value [3] was 65 mm. The “inhibition zone (IZ)” value [4] was 56 mm and the “inhibition zone (IZ)” value [5] was 77 mm.

In the case of `ClC1=C(/C=N/Nc2nc(-c3ccccc3)c(/N=N/c3ccccc3)s2)CCc2ccccc21`, the “inhibition zone (IZ)” value [1] is reported as 82 mm, the “inhibition zone (IZ)” value [2] is reported as 79 mm and the “inhibition zone (IZ)” value [3] is reported as 85 mm. The “inhibition zone (IZ)” value [4] was 49 mm and the “inhibition zone (IZ)” value [5] was 79 mm.

`Cc1nc(N/N=C/C2=C(Cl)c3ccccc3CC2)sc1/N=N/c1ccccc1` was tested, and the “inhibition zone (IZ)” value [1] was 89 mm, the “inhibition zone (IZ)” value [2] was 86 mm and the “inhibition zone (IZ)” value [3] was 81 mm. The “inhibition zone (IZ)” value [4] was 60 mm and the “inhibition zone (IZ)” value [5] was 84 mm.

For `COc1ccc(/N=N/c2sc(N/N=C/C3=C(Cl)c4ccccc4CC3)nc2-c2ccccc2)cc1`, the “inhibition zone (IZ)” value [1] was 86 mm, the “inhibition zone (IZ)” value [2] was 84 mm and the “inhibition zone (IZ)” value [3] was 90 mm. The “inhibition zone (IZ)” value [4] was 55 mm and the “inhibition zone (IZ)” value [5] was 75 mm.
